Values of other authors, collected in paper PMC8815272 (The Journal of Supercritical Fluids, 2022).
Where a name gives a salt, the structure may show the parent alone. Read-outs that look alike come from different tables or passages of the source.

Conditions: cited from earlier work
[1] = SC-CO2, 12–30 MPa, 313.2–343.2 K
[2] = SC-CO2, 12–33 MPa, 308.15–338.15 K
[3] = SC-CO2, 12.16–35.46 MPa, 308–348 K
[4] = SC-CO2, 12.2–35.5 MPa, 308–348 K
[5] = SC-CO2, 18.3–33.5 MPa, 308–328 K
[6] = SC-CO2, 15.5–30.5 MPa, 315–345 K
[7] = SC-CO2, 9–25 MPa, 308.2–328.2 K
[8] = SC-CO2, 12–27 MPa, 308.2–338.2 K
[9] = SC-CO2, 10–26 MPa, 308.2–328.2 K
[10] = SC-CO2, 9.2–24.4 MPa, 308.2–328.2 K
[11] = SC-CO2, 12–30 MPa, 308.2–338.2 K
[12] = SC-CO2, 12–27 MPa, 308.15–338.15 K
[13] = SC-CO2, 14.9–25.5 MPa, 303–323 K
[14] = SC-CO2, 10–30.3 MPa, 308.2–328.2 K

CC(C)N1c2ccccc2C(C)(C)C12C=Nc1c(cc(N3CCc4ccccc43)c3ccccc13)O2 (stereo not drawn) [1,3-dihydro-3,3-dimethyl-1-isopropyl-6-(2,3)-(dihydroindole-1-yl)spiro[2 H-indole-2,3 − 3 H-naphtho[2,1-b][1,4]oxazine]]
Crossover (MPa) (SC-CO2, 10–26 MPa, 308–328 K): 17 MPa | Mole fraction (y) (SC-CO2, 10–26 MPa, 308–328 K): 2.2 × 10^-7 to 5.05 × 10^-6

CCCCc1oc2ccccc2c1C(=O)c1cc(I)c(OCCN(CC)CC)c(I)c1 [Amiodarone hydrochloride]
Crossover (MPa) [1]: 19 MPa | Mole fraction (y) [1]: 2.510 × 10^−5 to 1.012 × 10^−3

C[C@@H](O[C@H]1OCCN(Cc2n[nH]c(=O)[nH]2)[C@H]1c1ccc(F)cc1)c1cc(C(F)(F)F)cc(C(F)(F)F)c1 [Aprepitant]
Crossover (MPa) [2]: 15–18 MPa | Mole fraction (y) [2]: 4.50 × 10^−6 to 7.67 × 10^−5

C[C@@H]1CC[C@H]2[C@@H](C)C(=O)O[C@@H]3O[C@@]4(C)CC[C@@H]1[C@]32OO4 [Artemisinin]
Crossover (MPa) (SC-CO2, 10–25 MPa, 303–328 K): 13–17 MPa | Mole fraction (y) (SC-CO2, 10–25 MPa, 303–328 K): 10^-4 to 10^-3

CC(C)c1c(C(=O)Nc2ccccc2)c(-c2ccccc2)c(-c2ccc(F)cc2)n1CC[C@@H](O)C[C@@H](O)CC(=O)O [Atorvastatin]
Crossover (MPa) [3]: 17 MPa | Mole fraction (y) [3]: 1.12 × 10^−6 to 1.45 × 10^−3

Cn1cnc([N+](=O)[O-])c1Sc1ncnc2nc[nH]c12 [Azathioprine]
Crossover (MPa) (SC-CO2, 12–27 MPa, 308–338 K): 12–15 MPa | Mole fraction (y) (SC-CO2, 12–27 MPa, 308–338 K): 0.27 × 10^−5 to 1.83 × 10^−5

CC[C@H]1OC(=O)[C@H](C)[C@@H](O[C@H]2C[C@@](C)(OC)[C@@H](O)[C@H](C)O2)[C@H](C)[C@@H](O[C@@H]2O[C@H](C)C[C@H](N(C)C)[C@H]2O)[C@](C)(O)C[C@@H](C)CN(C)[C@H](C)[C@@H](O)[C@]1(C)O [Azithromycin]
Crossover (MPa) [4]: 13.8–14 MPa | Mole fraction (y) [4]: 6.9 × 10^−5 to 2.73 × 10^−4

CS(=O)(=O)OCCCCOS(C)(=O)=O [Busulfan]
Crossover (MPa) (SC-CO2, 12–40 MPa, 308–338 K): 16 MPa

C=CC1=C(C(=O)O)N2C(=O)[C@@H](NC(=O)/C(=N\OCC(=O)O)c3csc(N)n3)[C@H]2SC1 [Cefixime trihydrate]
Mole fraction (y) [5]: 1.6 × 10^−7 to 3.02 × 10^−7

CC[C@H]1OC(=O)[C@H](C)[C@@H](O[C@H]2C[C@@](C)(OC)[C@@H](O)[C@H](C)O2)[C@H](C)[C@@H](O[C@@H]2O[C@H](C)C[C@H](N(C)C)[C@H]2O)[C@](C)(OC)C[C@@H](C)C(=O)[C@H](C)[C@@H](O)[C@]1(C)O [Clarithromycin]
Crossover (MPa) [4]: 15–15.2 MPa | Mole fraction (y) [4]: 1.31 × 10^−4 to 3.28 × 10^−4

CCC[C@@H]1C[C@@H](C(=O)N[C@@H]([C@H]2O[C@H](SC)[C@H](O)[C@@H](O)[C@H]2O)[C@H](C)Cl)N(C)C1 [Clindamycin]
Crossover (MPa) [4]: 14.8–15.2 MPa | Mole fraction (y) [4]: 1.77 × 10^−4 to 1.146 × 10^−3

CCC(=O)O[C@]1(C(=O)CCl)[C@@H](C)C[C@H]2[C@@H]3CCC4=CC(=O)C=C[C@]4(C)[C@@]3(F)[C@@H](O)C[C@@]21C [Clobetasol Propionate]
Crossover (MPa) [6]: 24.5 MPa | Mole fraction (y) [6]: 1 × 10^−6 to 2.1 × 10^−5

CCN(CC)c1ccc2cc(-c3nc4ccccc4[nH]3)c(=O)oc2c1 [Coumarin-7]
Crossover (MPa) (SC-CO2, 9–33 MPa, 308–338 K): 13–16 MPa | Mole fraction (y) (SC-CO2, 9–33 MPa, 308–338 K): 4.15 × 10^−6 to 1.00 × 10^−5

CN1CCC(=C2c3ccccc3C=Cc3ccccc32)CC1 [Cyproheptadine]
Crossover (MPa) (SC-CO2, 16–40 MPa, 308–338 K): 20 MPa | Mole fraction (y) (SC-CO2, 16–40 MPa, 308–338 K): 3.35 × 10^−5 to 3.09 × 10^−3

CC(=O)OCC(=O)[C@H]1CC[C@H]2[C@@H]3CCC4=CC(=O)CC[C@]4(C)[C@H]3CC[C@]12C [Desoxycorticosterone acetate]
Crossover (MPa) [6]: 24.5 MPa | Mole fraction (y) [6]: 5 × 10^−6 to 1.03 × 10^−4

O=C(O)c1cc(-c2ccc(F)cc2F)ccc1O [Diflunisal, 5-(2,4-difluorophenyl)− 2-hydroxybenzoic acid]
Crossover (MPa) [7]: 15 MPa | Mole fraction (y) [7]: 0.54 × 10^-6 to 8.07 × 10^-6

CC[C@H]1OC(=O)[C@H](C)[C@@H](O[C@H]2C[C@@](C)(OC)[C@@H](O)[C@H](C)O2)[C@H](C)[C@@H](O[C@@H]2O[C@H](C)C[C@H](N(C)C)[C@H]2O)[C@](C)(O)C[C@@H](C)C(=O)[C@H](C)[C@@H](O)[C@]1(C)O [Erythromycin]
Crossover (MPa) [4]: 16.8–17 MPa | Mole fraction (y) [4]: 4.3 × 10^−5 to 3.12 × 10^−4

COc1ccc2nc([S@@+]([O-])Cc3ncc(C)c(OC)c3C)[nH]c2c1 [Esomeprazole]
Crossover (MPa) [8]: 22 MPa | Mole fraction (y) [8]: 1.11 × 10^-5 to 9.10 × 10^-4

CC(C(=O)O)c1cccc(Oc2ccccc2)c1 (stereo not drawn) [Fenoprofen]
Crossover (MPa) (SC-CO2, 12–40 MPa, 308–338 K): 16 MPa | Mole fraction (y) (SC-CO2, 12–40 MPa, 308–338 K): 2.01 × 10^−5 to 4.20 × 10^−3

CC(C(=O)O)c1ccc(-c2ccccc2)c(F)c1 (stereo not drawn) [Flurbiprofen]
Crossover (MPa) (SC-CO2, 8–25 MPa, 303–323 K): 12 MPa | Mole fraction (y) (SC-CO2, 8–25 MPa, 303–323 K): 2.170 × 10^-5 to 19.683 × 10^-5

CC(C)n1c(/C=C/C(O)CC(O)CC(=O)O)c(-c2ccc(F)cc2)c2ccccc21 (stereo not drawn) [Fluvastatin]
Crossover (MPa) [3]: 17 MPa | Mole fraction (y) [3]: 5 × 10^−6 to 6 × 10^−4

Cc1ccc(NC(=O)c2ccc(CN3CCN(C)CC3)cc2)cc1Nc1nccc(-c2cccnc2)n1 [Imatinib mesylate]
Crossover (MPa) [8]: 18–21 MPa | Mole fraction (y) [8]: 1.0 × 10^−7 to 4.4 × 10^−6

CC(C)(O)C(=O)c1ccc(OCCO)cc1 [Irgacure® 2959, 2-Hydroxy-4'-(2-hydroxyethoxy)− 2-methylpropiophenone]
Crossover (MPa) [9]: 14 MPa | Mole fraction (y) [9]: 5.17 × 10^−6 to 2.83 × 10^−4

O=C1C=CC(=O)c2c(O)cccc21 [Juglone, 5-hydroxy-1,4-naphthoquinone]
Crossover (MPa) [10]: 21–22 MPa | Mole fraction (y) [10]: 2.0 × 10^−5 to 1.6 × 10^−3

CN1CCC(=C2c3ccccc3CC(=O)c3sccc32)CC1 [Ketotifen fumarate]
Crossover (MPa) [11]: 20 MPa | Mole fraction (y) [11]: 2.11 × 10^−5 to 1.07 × 10^−3

CCOC(=O)N1CCC(=C2c3ccc(Cl)cc3CCc3cccnc32)CC1 [Loratadine]
Crossover (MPa) [12]: 18–21 MPa | Mole fraction (y) [12]: 4.50 × 10^−6 to 1.30 × 10^−3

CC[C@H](C)C(=O)O[C@H]1C[C@@H](C)C=C2C=C[C@H](C)[C@H](CC[C@@H]3C[C@@H](O)CC(=O)O3)[C@H]21 [Lovastatin]
Crossover (MPa) [3]: 17 MPa

CC(C(=O)O)c1ccc(CC2CCCC2=O)cc1 (stereo not drawn) [Loxoprofen]
Crossover (MPa) (SC-CO2, 12–40 MPa, 308–338 K): 20 MPa | Mole fraction (y) (SC-CO2, 12–40 MPa, 308–338 K): 1.04 × 10^−5 to 1.28 × 10^−3

Cc1cnc(NC(=O)C2=C(O)c3ccccc3S(=O)(=O)N2C)s1 [Meloxicam sodium]
Crossover (MPa) [13]: 15–17 MPa | Mole fraction (y) [13]: 4.41 × 10^−6 to 12.76 × 10^−6

CCn1cc(C(=O)O)c(=O)c2cc(F)c(N3CCNCC3)cc21 [Norfloxacin]
Mole fraction (y) [14]: 1.4 × 10^−6 to 24.4 × 10^−6

CC1COc2c(N3CCN(C)CC3)c(F)cc3c(=O)c(C(=O)O)cn1c23 (stereo not drawn) [Ofloxacin]
Mole fraction (y) [14]: 0.4 × 10^−6 to 1.3 × 10^−6

C[C@]12C/C(=C/O)C(=O)C[C@@H]1CC[C@@H]1[C@@H]2CC[C@@]2(C)[C@H]1CC[C@]2(C)O [Oxymetholone]
Crossover (MPa) [5]: 18 MPa | Mole fraction (y) [5]: 1.6 × 10^−5 to 1.49 × 10^−4

CC(C)c1nc(N(C)S(C)(=O)=O)nc(-c2ccc(F)cc2)c1/C=C/[C@@H](O)C[C@@H](O)CC(=O)O [Rosuvastatin]
Crossover (MPa) [3]: 17 MPa | Mole fraction (y) [3]: 3 × 10^−6 to 2.44 × 10^−4

CCC(C)(C)C(=O)O[C@H]1C[C@@H](C)C=C2C=C[C@H](C)[C@H](CC[C@@H]3C[C@@H](O)CC(=O)O3)[C@H]21 [Simvastatin]
Crossover (MPa) [3]: 17 MPa | Mole fraction (y) [3]: 2 × 10^−6 to 5.35 × 10^−4

CNC(=O)c1cc(Oc2ccc(NC(=O)Nc3ccc(Cl)c(C(F)(F)F)c3)cc2)ccn1 [Sorafenib tosylate]
Mole fraction (y) (SC-CO2, 12–27 MPa, 308–338 K): 0.68 × 10^−6 to 12.57 × 10^−6

CCN(CC)CCNC(=O)c1c(C)[nH]c(/C=C2\C(=O)Nc3ccc(F)cc32)c1C [Sunitinib malate]
Mole fraction (y) (SC-CO2, 12–27 MPa, 308–338 K): 0.5 × 10^−5 to 8.56 × 10^−5

Cc1ccc(C(=O)c2ccc(CC(=O)O)n2C)cc1 [Tolmetin]
Crossover (MPa) (SC-CO2, 12–40 MPa, 308–338 K): 16 MPa | Mole fraction (y) (SC-CO2, 12–40 MPa, 308–338 K): 5.00 × 10^−5 to 2.59 × 10^−3

Nc1nc(N)c2nc(-c3ccccc3)c(N)nc2n1 [Triamterene, 2,4,7-Triamino-6-phenylpteridine]
Crossover (MPa) (SC-CO2, 12–27 MPa, 308–338 K): 19.2–19.5 MPa | Mole fraction (y) (SC-CO2, 12–27 MPa, 308–338 K): 0.03 × 10^−5 to 2.89 × 10^−5
